One data set deals with Nematode eggs. Nature of the data set: Plant pathogenic nematode inhibition test by dipping: nematode egg hatch inhibition (NY/T 1154.5-2006). The data set is classed as in vivo. As to conditions: in vivo. On the procedure: A plant pathogenic nematode inhibition test is conducted by dipping with the compounds in Table 1; and by referring to NY/T 1154.5-2006 (Part 5: Dipping Test for Insecticide Ovicidal Activity), the nematode egg hatch inhibition activity of the compounds is tested, as shown in Table 2: […]

The test system of a further data set is Nematode J2. Nature of the data set: Plant pathogenic nematode inhibition test by dipping: second-stage juveniles. It is filed as in vivo. Conditions: in vivo.
Another data set relates to Earthworm. Nature of the data set: Earthworm toxicity test (Test Guidelines on Environmental Safety Assessment for Chemical Pesticides). The data set is classed as in vivo. Conditions: cell adds 'low toxicity'. The method, then:
(§1) According to the earthworm and edaphon toxicity test procedures as prescribed in the Test Guidelines on Environmental Safety Assessment for Chemical Pesticides, earthworm and edaphon toxicity tests are conducted on compounds 1 to 60 from Table 1. The simulative usual dose of pesticide in the edaphon test is 40 ppm.

Another data set deals with Edaphon. Nature of the data set: Edaphon toxicity test (Test Guidelines on Environmental Safety Assessment for Chemical Pesticides). As to conditions: 15 d; 100 times of usual dose (simulative usual dose 40 ppm); cell adds 'low toxicity'. The method, then:
as §1

In brackets after ≈: the same amount, converted by molar mass. Where only a bound is given, the exact number is not on record here.

`O=C1CC(C(=O)OCCC=C(F)F)C(c2cc(C(F)(F)F)cc(C(F)(F)F)c2)O1` (centres unmarked) [Compound 47]: the values for the LC50 in the data set with Nematode eggs and with Nematode J2 were 11.41 µg/mL (≈ 26.4 µM) and 12.24 µg/mL (≈ 28.3 µM), respectively. In the data set with Earthworm, the “Earthworm Toxicity LC50 (14 d)” value is on record as >10, low toxicity mg/L. Moreover, the “Edaphon Toxicity (15 d) (Inhibition ratio when added amount is 100 times of usual dose)” value in the data set on Edaphon was <50%, low toxicity.

Regarding `Nc1ccccc1C1OC(=O)CC1C(=O)OCCC(F)=C(F)F` (centres unmarked) [Compound 59], the LC50 (as a rule, the concentration lethal to half of the exposed cells or organisms) came to 11.24 µg/mL (≈ 34.1 µM) with Nematode eggs and 13.24 µg/mL (≈ 40.2 µM) in the data set with Nematode J2. Also, the “Earthworm Toxicity LC50 (14 d)” value in the data set with Earthworm was >10, low toxicity mg/L. For the same compound, the “Edaphon Toxicity (15 d) (Inhibition ratio when added amount is 100 times of usual dose)” value with Edaphon is recorded as <50%, low toxicity.

For the compound `COc1cccc(C2OC(=O)CC2C(=O)OCCC(F)=C(F)F)c1` (centres unmarked) [Compound 37], the median lethal concentration (LC50) worked out at 12.84 µg/mL (≈ 37.3 µM) with Nematode eggs and 13.67 µg/mL (≈ 39.7 µM) in the data set on Nematode J2. Also, the “Earthworm Toxicity LC50 (14 d)” value in the data set with Earthworm was >10, low toxicity mg/L. For the same compound, the “Edaphon Toxicity (15 d) (Inhibition ratio when added amount is 100 times of usual dose)” value in the data set with Edaphon is reported as <50%, low toxicity.

`O=C1CC(C(=O)OCCC(F)=C(F)F)C(c2cc(Cl)ccc2Cl)O1` (centres unmarked) [Compound 10]: the LC50 was found to be 10.80 µg/mL (≈ 28.2 µM) in the data set with Nematode eggs and 13.30 µg/mL (≈ 34.7 µM) in the data set with Nematode J2. Further, the “Earthworm Toxicity LC50 (14 d)” value in the data set on Earthworm is >10, low toxicity mg/L. Further, the “Edaphon Toxicity (15 d) (Inhibition ratio when added amount is 100 times of usual dose)” value in the data set on Edaphon is reported as <50%, low toxicity.

Regarding `O=C1CC(C(=O)OCCC(F)=C(F)F)C(c2ccc(F)cc2)O1` (centres unmarked) [Compound 20], the median lethal concentration (LC50) worked out at 10.143 µg/mL (≈ 30.5 µM) in the data set with Nematode eggs and 12.532 µg/mL (≈ 37.7 µM) with Nematode J2. Further, in the data set on Earthworm, the “Earthworm Toxicity LC50 (14 d)” value is on record as >10, low toxicity mg/L. Moreover, the “Edaphon Toxicity (15 d) (Inhibition ratio when added amount is 100 times of usual dose)” value in the data set with Edaphon is <50%, low toxicity.

For the compound `O=C1CC(C(=O)OCCC(F)=C(F)F)C(c2ccc(Cl)cc2)O1` (centres unmarked) [Compound 15], the LC50 with Nematode eggs came out at 11.88 µg/mL (≈ 34.1 µM); in the data set on Nematode J2 it was 12.69 µg/mL (≈ 36.4 µM). The “Earthworm Toxicity LC50 (14 d)” value with Earthworm was >10, low toxicity mg/L. Moreover, in the data set on Edaphon, the “Edaphon Toxicity (15 d) (Inhibition ratio when added amount is 100 times of usual dose)” value was <50%, low toxicity.

For the compound `O=C1CC(C(=O)OCCC(F)=C(F)F)C(c2cccc([N+](=O)[O-])c2)O1` (centres unmarked) [Compound 57], the LC50 with Nematode eggs worked out at 12.12 µg/mL (≈ 33.7 µM); with Nematode J2, 14.23 µg/mL (≈ 39.6 µM). Further, the “Earthworm Toxicity LC50 (14 d)” value in the data set with Earthworm was >10, low toxicity mg/L. The “Edaphon Toxicity (15 d) (Inhibition ratio when added amount is 100 times of usual dose)” value in the data set with Edaphon was <50%, low toxicity.

For the compound `O=C1CC(C(=O)OCCC(F)=C(F)F)C(c2c(F)cccc2C(F)(F)F)O1` (centres unmarked) [Compound 31], the 50% lethal concentration (LC50) in the data set on Nematode eggs is 9.60 µg/mL (≈ 24 µM); in the data set on Nematode J2, 10.07 µg/mL (≈ 25.2 µM). The “Earthworm Toxicity LC50 (14 d)” value with Earthworm is >10, low toxicity mg/L. Further, the “Edaphon Toxicity (15 d) (Inhibition ratio when added amount is 100 times of usual dose)” value in the data set on Edaphon is listed as <50%, low toxicity.

With `COc1cccc(C2OC(=O)CC2C(=O)OCCC=C(F)F)c1` (centres unmarked) [Compound 36], the LC50 in the data set on Nematode eggs turned out to be 11.24 µg/mL (≈ 34.4 µM); in the data set with Nematode J2, 12.64 µg/mL (≈ 38.7 µM). In addition, in the data set on Earthworm, the “Earthworm Toxicity LC50 (14 d)” value was >10, low toxicity mg/L. Further, in the data set with Edaphon, the “Edaphon Toxicity (15 d) (Inhibition ratio when added amount is 100 times of usual dose)” value is reported as <50%, low toxicity.

Consider `O=C1CC(C(=O)OCCC(F)=C(F)F)C(c2cccc(Cl)c2Cl)O1` (centres unmarked) [Compound 8], for which the LC50 in the data set with Nematode eggs was found to be 12.81 µg/mL (≈ 33.4 µM); in the data set with Nematode J2 it was 13.14 µg/mL (≈ 34.3 µM). The “Earthworm Toxicity LC50 (14 d)” value with Earthworm is listed as >10, low toxicity mg/L. Further, the “Edaphon Toxicity (15 d) (Inhibition ratio when added amount is 100 times of usual dose)” value in the data set on Edaphon is on record as <50%, low toxicity.

For `COc1ccc(C2OC(=O)CC2C(=O)OCCC=C(F)F)cc1` (centres unmarked) [Compound 38], the values for the LC50 in the data set with Nematode eggs and with Nematode J2 were 12.14 µg/mL (≈ 37.2 µM) and 13.40 µg/mL (≈ 41.1 µM), respectively. Moreover, the “Earthworm Toxicity LC50 (14 d)” value in the data set on Earthworm was >10, low toxicity mg/L. In addition, the “Edaphon Toxicity (15 d) (Inhibition ratio when added amount is 100 times of usual dose)” value with Edaphon is <50%, low toxicity.
